Laboratory results: ChEMBL document CHEMBL1201862, “PubChem BioAssay data set” (2004)
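48-hour exposure; five concentrations; linearly interpolated endpoints. GI50 marks 50% less growth.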 Activity calls are given as the source filed them. No stated cut-off is given here; in the data, active = GI50 up to about 1.1 µM and inactive = higher.

Assays:
Test in all cases: NCI anticancer screen, dose series, 48 h
A498 = system: A498
A549 = system: A549
BT-549 = system: BT-549
CAKI-1 = system: CAKI-1
DU-145 = system: DU-145
HCT-15 = system: HCT-15
HL-60 = system: HL-60
LOX IMVI = system: LOX IMVI
MDA-MB-435 = system: MDA-MB-435
NCI-H460 = system: NCI-H460
NCI-H522 = system: NCI-H522
PC-3 = system: PC-3
RPMI-8226 = system: RPMI-8226
SK-MEL-2 = system: SK-MEL-2
SK-MEL-5 = system: SK-MEL-5
SK-OV-3 = system: SK-OV-3
SNB-19 = system: SNB-19
SR = system: SR
T47D = system: T47D
TK-10 = system: TK-10

Compound | GI50 (A498) | GI50 (A549) | GI50 (BT-549) | GI50 (CAKI-1) | GI50 (DU-145) | GI50 (HCT-15) [µM] | GI50 (HL-60) | GI50 (LOX IMVI) | GI50 (MDA-MB-435) | GI50 (NCI-H460) | GI50 (NCI-H522) | GI50 (PC-3) | GI50 (RPMI-8226) | GI50 (SK-MEL-2) | GI50 (SK-MEL-5) | GI50 (SK-OV-3) | GI50 (SNB-19) | GI50 (SR) | GI50 (T47D) | GI50 (TK-10)
C=CC[C@H]1[C@@H](O[Si](C)(C)C(C)(C)C)[C@H](n2ccc(=O)[nH]c2=O)O[C@@H]1CO[Si](C)(C)C(C)(C)C | 3.01 µM (inactive) | 1.85 µM (inactive) | 3.05 µM (inactive) | 2.23 µM (inactive) | 2.09 µM (inactive) | 1.77 | 0.971 µM (active) | 1.63 µM (inactive) | 2 µM (inactive) | 1.9 µM (inactive) | 1.76 µM (inactive) | 2.44 µM (inactive) | 2.11 µM (inactive) | 2.62 µM (inactive) | 1.72 µM (inactive) | 1.36 µM (inactive) | 2.39 µM (inactive) | 2.44 µM (inactive) | 2.61 µM (inactive) | 2.97 µM (inactive)
COC(=O)c1c(C)c2c(c(C)c1C(=O)OC)-c1c(C)ccc3ccc(C)c-2c13 | > 72.6 µM (inactive) | 37.9 µM (inactive) | > 100 µM (inactive) | > 100 µM (inactive) | > 100 µM (inactive) | 13 | 5.08 µM (inactive) | 12.1 µM (inactive) | > 83 µM (inactive) | 18.6 µM (inactive) | 31.2 µM (inactive) | 28.7 µM (inactive) | 7.28 µM (inactive) | > 100 µM (inactive) | 13.1 µM (inactive) | > 74.8 µM (inactive) | > 87.5 µM (inactive) | 6.78 µM (inactive) | 18.4 µM (inactive) | > 65.8 µM (inactive)
O=c1c(-c2ccc3c(c2)OCO3)coc2c3c(ccc12)OCO3 | 29 µM (inactive) | 49.9 µM (inactive) | 15.6 µM (inactive) | 63.7 µM (inactive) | 41.4 µM (inactive) | 28.4 | > 100 µM (inactive) | 45.2 µM (inactive) | > 100 µM (inactive) | 17.2 µM (inactive) | 18.3 µM (inactive) | 75.9 µM (inactive) | > 100 µM (inactive) | 95.9 µM (inactive) | > 100 µM (inactive) | 18.1 µM (inactive) | 21.4 µM (inactive) | 40 µM (inactive) | 37.8 µM (inactive) | 19.1 µM (inactive)
CC(=O)Oc1ccc(C(c2ccc(OC(C)=O)cc2)c2ccccn2)cc1 [BISACODYL] | 59 µM (inactive) | 91.4 µM (inactive) | 0.0843 µM (active) | > 100 µM (inactive) | > 84.3 µM (inactive) | 39.7 | 36.2 µM (inactive) | 29.2 µM (inactive) | 76.4 µM (inactive) | 99.1 µM (inactive) | 76.7 µM (inactive) | 26.5 µM (inactive) | 65.3 µM (inactive) | 98.6 µM (inactive) | 68.4 µM (inactive) | 59.4 µM (inactive) | > 100 µM (inactive) | 64.4 µM (inactive) | 0.228 µM (active) | 81.3 µM (inactive)
